Converted amounts (≈) assume the structure as drawn.
Columns and labels:
Format in all cases: cell-based
[1] = test system: spores of ATCC BBA1870 strain; assay: Inhibition of germination of C. difficile spores (MIC), strain ATCC BBA1870; settings: Clostridioides difficile, ATCCBBA1870STRAIN, 1 h; strain 1870; sodium taurocholate as germinant, BHIS medium, 37° C., OD580 for 60 min; read-out: MIC (minimum concentration that completely inhibits spore germination)
Procedure, shortened: (§1)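 Spores heat-activated for 30 min at 65° C and washed, then preincubated with compound (10 mM DMSO stock) in BHIS at 37° C. Germination was triggered with sodium taurocholate, and OD580 was read each minute for 60 min. Inhibition = 100% − germination rate, from final vs initial OD relative to germinant-only controls.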

[2] = test system: spores of ATCC 43255 strain; assay: Inhibition of germination of C. difficile spores (MIC), strain ATCC 43255; settings: Clostridioides difficile, ATCC43255, 1 h; strain 43255; sodium taurocholate as germinant, BHIS medium, 37° C., OD580 for 60 min; read-out: MIC (minimum concentration that completely inhibits spore germination)
Procedure, shortened: as §1

[3] = test system: spores of ATCC 630 strain; assay: Inhibition of germination of C. difficile spores (MIC), strain ATCC 630; settings: Clostridioides difficile, ATCC630, 1 h; strain 630; sodium taurocholate as germinant, BHIS medium, 37° C., OD580 for 60 min; read-out: MIC (minimum concentration that completely inhibits spore germination)
Procedure, shortened: as §1

| SMILES | MIC [1] | MIC [2] | MIC [3] |
| --- | --- | --- | --- |
| CC(C)[C@@H](NC(=O)C[C@@H](C)[C@H]1CC[C@H]2[C@@H]3[C@H](O)CC4=CC(=O)C=C[C@]4(C)[C@H]3CC[C@]12C)c1ccc(Cl)s1 [Compound I-162-2] | 0.5 µM (≈ 0.272 µg/mL) | 0.5 µM (≈ 0.272 µg/mL) | 0.5 µM (≈ 0.272 µg/mL) |
| CC[C@@H](NC(=O)C[C@@H](C)[C@H]1CC[C@H]2[C@@H]3[C@@H](O)C[C@@H]4CC(=O)CC[C@]4(C)[C@H]3CC[C@]12C)c1ccc(Cl)s1 [Compound I-163] | 32 µM (≈ 17.1 µg/mL) | 32 µM (≈ 17.1 µg/mL) | 32 µM (≈ 17.1 µg/mL) |
| CC(C)[C@@H](NC(=O)C[C@@H](C)[C@H]1CC[C@H]2[C@@H]3[C@@H](O)C[C@@H]4CC(=O)CC[C@]4(C)[C@H]3CC[C@]12C)c1ccc(Cl)s1 [Compound I-164] | 32 µM (≈ 17.5 µg/mL) | 32 µM (≈ 17.5 µg/mL) | 32 µM (≈ 17.5 µg/mL) |
| CC[C@@H](NC(=O)C[C@@H](C)[C@H]1CC[C@H]2[C@@H]3[C@H](O)C[C@@H]4CC(=O)CC[C@]4(C)[C@H]3C[C@H](O)[C@]12C)c1ccc(Br)s1 [Compound I-165] | 64 µM (≈ 38.1 µg/mL) | 64 µM (≈ 38.1 µg/mL) | 32 µM (≈ 19 µg/mL) |
| CC(C)[C@@H](NC(=O)C[C@@H](C)[C@H]1CC[C@H]2[C@@H]3[C@H](O)C[C@@H]4CC(=O)CC[C@]4(C)[C@H]3C[C@H](O)[C@]12C)c1ccc(Br)s1 [Compound I-166] | 64 µM (≈ 39 µg/mL) | 32 µM (≈ 19.5 µg/mL) | 32 µM (≈ 19.5 µg/mL) |
| CC[C@@H](NC(=O)C[C@@H](C)[C@H]1CC[C@H]2[C@@H]3C(=O)C[C@@H]4C[C@H](OC)CC[C@]4(C)[C@H]3CC[C@]12C)c1ccc(Cl)s1 [Compound I-167] | 256 µM (≈ 140 µg/mL) | 128 µM (≈ 70.2 µg/mL) | 128 µM (≈ 70.2 µg/mL) |
| CO[C@@H]1CC[C@@]2(C)[C@H](CC(=O)[C@@H]3[C@@H]2CC[C@]2(C)[C@@H]([C@H](C)CC(=O)N[C@@H](c4ccc(Cl)s4)C(C)C)CC[C@@H]32)C1 [Compound I-168] | 128 µM (≈ 72 µg/mL) | 128 µM (≈ 72 µg/mL) | 128 µM (≈ 72 µg/mL) |
| CC[C@@H](NC(=O)C[C@@H](C)[C@H]1CC[C@H]2[C@@H]3[C@H](O)C[C@@H]4C[C@H](OC)CC[C@]4(C)[C@H]3CC[C@]12C)c1ccc(Cl)s1 [Compound I-169] | 256 µM (≈ 141 µg/mL) | 256 µM (≈ 141 µg/mL) | 128 µM (≈ 70.4 µg/mL) |
| CO[C@@H]1CC[C@@]2(C)[C@@H](C1)C[C@@H](O)[C@@H]1[C@@H]2CC[C@]2(C)[C@@H]([C@H](C)CC(=O)N[C@@H](c3ccc(Cl)s3)C(C)C)CC[C@@H]12 [Compound I-170] | 128 µM (≈ 72.2 µg/mL) | 128 µM (≈ 72.2 µg/mL) | 128 µM (≈ 72.2 µg/mL) |
| CC[C@@H](NC(=O)C[C@@H](C)[C@H]1CC[C@H]2[C@@H]3[C@H](N)C[C@@H]4C[C@H](O)CC[C@]4(C)[C@H]3CC[C@]12C)c1ccc(Cl)s1 [Compound I-171] | 32 µM (≈ 17.1 µg/mL) | 32 µM (≈ 17.1 µg/mL) | 32 µM (≈ 17.1 µg/mL) |
| CC[C@@H](NC(=O)C[C@@H](C)[C@H]1CC[C@H]2[C@@H]3[C@H](N)C[C@@H]4CC(=O)CC[C@]4(C)[C@H]3CC[C@]12C)c1ccc(Cl)s1 [Compound I-172] | 32 µM (≈ 17.1 µg/mL) | 32 µM (≈ 17.1 µg/mL) | 32 µM (≈ 17.1 µg/mL) |
| CC(C)[C@@H](NC(=O)C[C@@H](C)[C@H]1CC[C@H]2[C@@H]3[C@H](N)C[C@@H]4C[C@H](O)CC[C@]4(C)[C@H]3CC[C@]12C)c1ccc(Cl)s1 [Compound I-173] | 32 µM (≈ 17.6 µg/mL) | 16 µM (≈ 8.79 µg/mL) | 16 µM (≈ 8.79 µg/mL) |
| CC(C)[C@@H](NC(=O)C[C@@H](C)[C@H]1CC[C@H]2[C@@H]3[C@H](N)C[C@@H]4CC(=O)CC[C@]4(C)[C@H]3CC[C@]12C)c1ccc(Cl)s1 [Compound I-174] | 32 µM (≈ 17.5 µg/mL) | 32 µM (≈ 17.5 µg/mL) | 32 µM (≈ 17.5 µg/mL) |
| CC[C@@H](NC(=O)C[C@@H](C)[C@H]1CC[C@H]2[C@@H]3[C@H](OC(C)=O)C[C@@H]4CC(=O)CC[C@]4(C)[C@H]3CC[C@]12C)c1ccc(Cl)s1 [Compound I-175] | 1 µM (≈ 0.576 µg/mL) | 1 µM (≈ 0.576 µg/mL) | 0.5 µM (≈ 0.288 µg/mL) |
| CC[C@@H](NC(=O)C[C@@H](C)[C@H]1CC[C@H]2[C@@H]3[C@H](OC(C)=O)C[C@@H]4CC(=O)CC[C@]4(C)[C@H]3CC[C@]12C)c1ccc(Br)s1 [Compound I-176] | 0.5 µM (≈ 0.31 µg/mL) | 0.5 µM (≈ 0.31 µg/mL) | 0.5 µM (≈ 0.31 µg/mL) |
| CC(=O)O[C@@H]1C[C@@H]2CC(=O)CC[C@]2(C)[C@H]2CC[C@]3(C)[C@@H]([C@H](C)CC(=O)N[C@@H](c4ccc(Cl)s4)C(C)C)CC[C@H]3[C@H]12 [Compound I-177] | 0.5 µM (≈ 0.295 µg/mL) | 1 µM (≈ 0.59 µg/mL) | 0.5 µM (≈ 0.295 µg/mL) |

| SMILES | MIC [1] | MIC [2] | MIC [3] |
| --- | --- | --- | --- |
| CC(=O)O[C@@H]1C[C@@H]2CC(=O)CC[C@]2(C)[C@H]2CC[C@]3(C)[C@@H]([C@H](C)CC(=O)N[C@@H](c4ccc(Br)s4)C(C)C)CC[C@H]3[C@H]12 [Compound I-178] | 1 µM (≈ 0.635 µg/mL) | 0.5 µM (≈ 0.317 µg/mL) | 0.5 µM (≈ 0.317 µg/mL) |
| CC[C@@H](NC(=O)C[C@@H](C)[C@H]1CC[C@H]2[C@@H]3[C@H](OC(=O)CCC(=O)O)C[C@@H]4CC(=O)CC[C@]4(C)[C@H]3CC[C@]12C)c1ccc(Cl)s1 [Compound I-179] | 2 µM (≈ 1.27 µg/mL) | 2 µM (≈ 1.27 µg/mL) | 2 µM (≈ 1.27 µg/mL) |
| CC[C@@H](NC(=O)C[C@@H](C)[C@H]1CC[C@H]2[C@@H]3[C@H](OC(=O)CCC(=O)O)C[C@@H]4CC(=O)CC[C@]4(C)[C@H]3CC[C@]12C)c1ccc(Br)s1 [Compound I-180] | 2 µM (≈ 1.36 µg/mL) | 2 µM (≈ 1.36 µg/mL) | 1 µM (≈ 0.679 µg/mL) |
| CC(C)[C@@H](NC(=O)C[C@@H](C)[C@H]1CC[C@H]2[C@@H]3[C@H](OC(=O)CCC(=O)O)C[C@@H]4CC(=O)CC[C@]4(C)[C@H]3CC[C@]12C)c1ccc(Cl)s1 [Compound I-181] | 2 µM (≈ 1.3 µg/mL) | 2 µM (≈ 1.3 µg/mL) | 2 µM (≈ 1.3 µg/mL) |
| CC(C)[C@@H](NC(=O)C[C@@H](C)[C@H]1CC[C@H]2[C@@H]3[C@H](OC(=O)CCC(=O)O)C[C@@H]4CC(=O)CC[C@]4(C)[C@H]3CC[C@]12C)c1ccc(Br)s1 [Compound I-182] | 2 µM (≈ 1.39 µg/mL) | 2 µM (≈ 1.39 µg/mL) | 2 µM (≈ 1.39 µg/mL) |
| CCCCCCCC(=O)O[C@@H]1C[C@@H]2CC(=O)CC[C@]2(C)[C@H]2CC[C@]3(C)[C@@H]([C@H](C)CC(=O)N[C@H](CC)c4ccc(Cl)s4)CC[C@H]3[C@H]12 [Compound I-183] | 256 µM (≈ 169 µg/mL) | 128 µM (≈ 84.5 µg/mL) | 128 µM (≈ 84.5 µg/mL) |
| CCCCCCCC(=O)O[C@@H]1C[C@@H]2CC(=O)CC[C@]2(C)[C@H]2CC[C@]3(C)[C@@H]([C@H](C)CC(=O)N[C@H](CC)c4ccc(Br)s4)CC[C@H]3[C@H]12 [Compound I-184] | 128 µM (≈ 90.2 µg/mL) | 128 µM (≈ 90.2 µg/mL) | 128 µM (≈ 90.2 µg/mL) |
| CCCCCCCC(=O)O[C@@H]1C[C@@H]2CC(=O)CC[C@]2(C)[C@H]2CC[C@]3(C)[C@@H]([C@H](C)CC(=O)N[C@@H](c4ccc(Cl)s4)C(C)C)CC[C@H]3[C@H]12 [Compound I-185] | 128 µM (≈ 86.3 µg/mL) | 128 µM (≈ 86.3 µg/mL) | 128 µM (≈ 86.3 µg/mL) |
| CCCCCCCC(=O)O[C@@H]1C[C@@H]2CC(=O)CC[C@]2(C)[C@H]2CC[C@]3(C)[C@@H]([C@H](C)CC(=O)N[C@@H](c4ccc(Br)s4)C(C)C)CC[C@H]3[C@H]12 [Compound I-186] | 256 µM (≈ 184 µg/mL) | 256 µM (≈ 184 µg/mL) | 256 µM (≈ 184 µg/mL) |
| CC[C@@H](NC(=O)C[C@@H](C)[C@H]1CC[C@H]2[C@@H]3[C@H](OC(=O)CCCCCCC(=O)O)C[C@@H]4CC(=O)CC[C@]4(C)[C@H]3CC[C@]12C)c1ccc(Cl)s1 [Compound I-187] | 0.125 µM (≈ 0.0863 µg/mL) | 0.125 µM (≈ 0.0863 µg/mL) | 0.125 µM (≈ 0.0863 µg/mL) |
| CC[C@@H](NC(=O)C[C@@H](C)[C@H]1CC[C@H]2[C@@H]3[C@H](OC(=O)CCCCCCC(=O)O)C[C@@H]4CC(=O)CC[C@]4(C)[C@H]3CC[C@]12C)c1ccc(Br)s1 [Compound I-188] | 0.25 µM (≈ 0.184 µg/mL) | 0.25 µM (≈ 0.184 µg/mL) | 0.25 µM (≈ 0.184 µg/mL) |
| CC(C)[C@@H](NC(=O)C[C@@H](C)[C@H]1CC[C@H]2[C@@H]3[C@H](OC(=O)CCCCCCC(=O)O)C[C@@H]4CC(=O)CC[C@]4(C)[C@H]3CC[C@]12C)c1ccc(Cl)s1 [Compound I-189] | 0.25 µM (≈ 0.176 µg/mL) | 0.25 µM (≈ 0.176 µg/mL) | 0.125 µM (≈ 0.0881 µg/mL) |
| CC(C)[C@@H](NC(=O)C[C@@H](C)[C@H]1CC[C@H]2[C@@H]3[C@H](OC(=O)CCCCCCC(=O)O)C[C@@H]4CC(=O)CC[C@]4(C)[C@H]3CC[C@]12C)c1ccc(Br)s1 [Compound I-190] | 0.25 µM (≈ 0.187 µg/mL) | 0.25 µM (≈ 0.187 µg/mL) | 0.25 µM (≈ 0.187 µg/mL) |
| CC[C@@H](NC(=O)C[C@@H](C)[C@H]1CC[C@H]2[C@@H]3[C@H](OP(=O)(O)O)C[C@@H]4CC(=O)CC[C@]4(C)[C@H]3CC[C@]12C)c1ccc(Cl)s1 [Compound I-191] | 64 µM (≈ 39.3 µg/mL) | 64 µM (≈ 39.3 µg/mL) | 64 µM (≈ 39.3 µg/mL) |
| CC[C@@H](NC(=O)C[C@@H](C)[C@H]1CC[C@H]2[C@@H]3[C@H](OP(=O)(O)O)C[C@@H]4CC(=O)CC[C@]4(C)[C@H]3CC[C@]12C)c1ccc(Br)s1 [Compound I-192] | 64 µM (≈ 42.2 µg/mL) | 64 µM (≈ 42.2 µg/mL) | 64 µM (≈ 42.2 µg/mL) |
